Reference: paper PMC5432998, “Recombinant expression of thermostable processive MtEG5 endoglucanase and its synergism with MtLPMO from Myceliophthora thermophila during the hydrolysis of lignocellulosic substrates” (Biotechnology for Biofuels, 2017)

Target: T1, MtEG5A (Thermothelomyces thermophilus, UniProt G2Q5D8)
T1 construct: gene MYCTH_86753; mature GH5 with CBM1; ORF 389 aa, signal peptide removed (printed MKSSILASVFATGAVA); C-terminal myc/His tag; Pichia pastoris X33
T1 sequence (G2Q5D8 17-389): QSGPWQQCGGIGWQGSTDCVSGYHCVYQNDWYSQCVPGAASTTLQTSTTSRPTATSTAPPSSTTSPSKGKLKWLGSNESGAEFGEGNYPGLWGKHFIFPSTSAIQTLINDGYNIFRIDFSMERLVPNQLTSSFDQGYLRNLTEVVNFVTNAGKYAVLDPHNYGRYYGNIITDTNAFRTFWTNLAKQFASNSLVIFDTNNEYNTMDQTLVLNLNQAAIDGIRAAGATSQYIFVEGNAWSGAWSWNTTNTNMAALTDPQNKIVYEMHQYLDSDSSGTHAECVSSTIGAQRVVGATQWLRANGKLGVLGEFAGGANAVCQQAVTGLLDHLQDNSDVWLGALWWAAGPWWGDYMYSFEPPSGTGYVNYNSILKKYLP
Assay: HPAEC-PAD hydrolysis time course
Format: biochemical
Details: 40 uM substrate; citrate-phosphate pH 5.0; 50 °C

| SMILES | HPAEC-PAD hydrolysis time course |
| --- | --- |
| OC[C@H]1O[C@@H](O[C@H]2[C@H](O)[C@@H](O)[C@H](O[C@H]3[C@H](O)[C@@H](O)[C@H](O[C@H]4[C@H](O)[C@@H](O)[C@H](O[C@H]5[C@H](O)[C@@H](O)C(O)O[C@@H]5CO)O[C@@H]4CO)O[C@@H]3CO)O[C@@H]2CO)[C@H](O)[C@@H](O)[C@@H]1O (some centres unmarked) [G5, cellopentaose] | the enzyme catalyzed the hydrolysis of G5, the products were G2 and G3 |
| OC[C@H]1O[C@@H](O[C@H]2[C@H](O)[C@@H](O)[C@H](O[C@H]3[C@H](O)[C@@H](O)[C@H](O[C@H]4[C@H](O)[C@@H](O)[C@H](O[C@H]5[C@H](O)[C@@H](O)[C@H](O[C@H]6[C@H](O)[C@@H](O)C(O)O[C@@H]6CO)O[C@@H]5CO)O[C@@H]4CO)O[C@@H]3CO)O[C@@H]2CO)[C@H](O)[C@@H](O)[C@@H]1O (some centres unmarked) [G6, cellohexaose] | The comparison of catalytic efficiency (k cat /K m) values of MtEG5A against the oligosaccharides |
